Test results taken from patent US6734139B1, “N-aryl-uracile-based herbicides” (priority 1999, dated 2004).
Where “and” joins values, the source holds several entries; their conditions need not be identical. Identical values can stand only once.

Columns and labels:
Format in all cases: in vivo
Galium [1] = assay: Post-emergence test (herbicidal action, Colby): Galium
Amaranthus = assay: Post-emergence test (herbicidal action, Colby): Amaranthus
Polygonum [2] = assay: Post-emergence test (herbicidal action, Colby): Polygonum; conditions: 125 g of a.i./ha
Solanum = assay: Post-emergence test (herbicidal action, Colby): Solanum
Excerpt: (§1) The expected action for a given combination of two herbicides can be calculated as follows (cf. COLBY, S. R.: “Calculating synergistic and antagonistic responses of herbicide combinations”, Weeds 15, Pages 20-22, 1967):
(§2) If the actual damage exceeds the calculated value, the combination has a superadditive effect, that is to say a synergistic effect.
(§3) To produce a suitable preparation of active compound, 1 part by weight of active compound is mixed with the stated amount of solvent, the stated amount of emulsifier is added and the concentrate is diluted with water to the desired concentration. Formulated products are dissolved in water and then diluted with water to the desired concentration.
(§4) The solutions of the other mixing components (active compounds or safeners) are prepared analogously. The separately prepared solutions of the various mixing components are then combined and, if appropriate, additional substances (formulation auxiliaries, additives, etc.) are added and, if appropriate, water is added to prepare the desired dilution.
(§5) After three weeks, the degree of damage to the plants is rated in % damage in comparison to the development of the untreated control. The figures denote
(§6) 0%=no effect/no damage (like untreated control)

Matricaria [3] = assay: Post-emergence test (herbicidal action, Colby): Matricaria; conditions: 125 g of a.i./ha
Datura [4] = assay: Post-emergence test (herbicidal action, Colby): Datura
Chenopodium [5] = assay: Post-emergence test (herbicidal action, Colby): Chenopodium; conditions: 60 g of a.i./ha
Veronica = assay: Post-emergence test (herbicidal action, Colby): Veronica
Excerpt: as §1, §2, §3, §4, §5, §6

Abutilon [6] = assay: Post-emergence test (herbicidal action, Colby): Abutilon; conditions: 60 g of a.i./ha
Abutilon [7] = assay: Pre-emergence test (herbicidal action, Colby): Abutilon; conditions: for pest or weed control at 30 g/ha: 30 g of a.i./ha; for pest or weed control at 30 g/ha / pest or weed control at 60 g/ha: read-out: Abutilon; for pest or weed control at 60 g/ha: 60 g of a.i./ha; for pest or weed control at 125 g/ha: 125 g of a.i./ha
Galium [8] = assay: Pre-emergence test (herbicidal action, Colby): Galium
Bromus = assay: Pre-emergence test (herbicidal action, Colby): Bromus
Echinochloa = assay: Pre-emergence test (herbicidal action, Colby): Echinochloa
Eriochloa = assay: Pre-emergence test (herbicidal action, Colby): Eriochloa
Chenopodium [9] = assay: Pre-emergence test (herbicidal action, Colby): Chenopodium
Lolium = assay: Pre-emergence test (herbicidal action, Colby): Lolium
Datura [10] = assay: Pre-emergence test (herbicidal action, Colby): Datura
Ipomoea = assay: Pre-emergence test (herbicidal action, Colby): Ipomoea
Setaria = assay: Pre-emergence test (herbicidal action, Colby): Setaria
Digitaria = assay: Pre-emergence test (herbicidal action, Colby): Digitaria
Polygonum [11] = assay: Pre-emergence test (herbicidal action, Colby): Polygonum
Cassia = assay: Pre-emergence test (herbicidal action, Colby): Cassia
Alopecurus = assay: Pre-emergence test (herbicidal action, Colby): Alopecurus
Matricaria [12] = assay: Pre-emergence test (herbicidal action, Colby): Matricaria; conditions: 125 g of a.i./ha
weeds = assay: Pre-emergence test (herbicidal action against weeds, Colby)
Excerpt: as §1, §2
The theoretically expected activity for a given combination of three herbicides can likewise be found in the literature mentioned above.
Solvent: 2 to 3 parts by weight of acetone or N,N-dimethyl-formamide
Emulsifier: 1 part by weight of alkylaryl polyglycol ether
as §3, §4
Seeds of the test plants are sown in standard soil. After 24 hours, the soil is sprayed with the preparation of active compound such that the particular amount of active compound desired in each case is applied per unit area. The concentration of active compound in the spray liquor is chosen such that the particular amount of active compound desired in each case is applied in 500 litres of water per hectare. The containers with the test plants are kept in a greenhouse at controlled temperature and controlled illumination until evaluation.
as §5, §6

Stellaria = assay: Pre-emergence test (herbicidal action, Colby): Stellaria
Viola = assay: Pre-emergence test (herbicidal action, Colby): Viola; conditions: 125 g of a.i./ha

SMILES: Cc1nn(-c2cc(NS(C)(=O)=O)c(Cl)cc2Cl)c(=O)n1C(F)F [sulfentrazone, 2-(2,4-dichloro-5-methylsulphonylamino-phenyl)-4-difluoromethyl-5-methyl-2,4-dihydro-3H-1,2,4-triazol-3-one]
- Galium (Galium [1]; 60 g of a.i./ha): 0%
- Amaranthus (Amaranthus; 60 g of a.i./ha): 90%
- Polygonum (Polygonum [2]): 50%
- Solanum (Solanum; 60 g of a.i./ha): 0%
- Solanum (Solanum; 125 g of a.i./ha): 0%
- Matricaria (Matricaria [3]): 0%
- Datura (Datura [4]; 60 g of a.i./ha): 0%
- Datura (Datura [4]; 125 g of a.i./ha): 0%
- Chenopodium (Chenopodium [5]): 60%
- Veronica (Veronica; 60 g of a.i./ha): 0%
- Veronica (Veronica; 125 g of a.i./ha): 20%
- Abutilon (Abutilon [6]): 0%

SMILES: CC(C)N(C(=O)COc1nnc(C(F)(F)F)s1)c1ccc(F)cc1 [flufenacet, N-(4-fluoro-phenyl)-N-i-propyl-2-(5-trifluoromethyl-1,3,4-thiadiazol-2-yl-oxy)-acetamide]
- pest or weed control at 30 g/ha (Abutilon [7]): 20%
- pest or weed control at 60 g/ha (Abutilon [7]): 20%
- pest or weed control at 125 g/ha (Abutilon [7]): 20%
- Galium (Galium [8]; 30 g of a.i./ha): 30%
- Bromus (Bromus; 60 g of a.i./ha): 30%
- Echinochloa (Echinochloa; 60 g of a.i./ha): 90%
- Eriochloa (Eriochloa; 30 g of a.i./ha): 80%
- Chenopodium (Chenopodium [9]; 30 g of a.i./ha): 30%
- Chenopodium (Chenopodium [9]; 60 g of a.i./ha): 50%
- Lolium (Lolium; 60 g of a.i./ha): 80%
- Datura (Datura [10]; 30 g of a.i./ha): 20%
- Datura (Datura [10]; 60 g of a.i./ha): 40%
- Ipomoea (Ipomoea; 30 g of a.i./ha): 30%
- Ipomoea (Ipomoea; 60 g of a.i./ha): 30%
- Ipomoea (Ipomoea; 125 g of a.i./ha): 30%
- Setaria (Setaria; 30 g of a.i./ha): 70%
- Setaria (Setaria; 60 g of a.i./ha): 80% and 90%
- Digitaria (Digitaria; 30 g of a.i./ha): 80%
- Digitaria (Digitaria; 60 g of a.i./ha): 80%
- Polygonum (Polygonum [11]; 30 g of a.i./ha): 20%
- Polygonum (Polygonum [11]; 60 g of a.i./ha): 30%
- Cassia (Cassia; 60 g of a.i./ha): 60%
- Alopecurus (Alopecurus; 60 g of a.i./ha): 70%
- Matricaria (Matricaria [12]): 60%
- Chenopodium (pre-emergence test) (weeds; Table 23, 30 g of a.i./ha): 30
- Ipomoea (pre-emergence test) (weeds; Table 23, 30 g of a.i./ha): 50
- Lolium (pre-emergence test) (weeds; Table 23, 30 g of a.i./ha): 70
- Setaria (pre-emergence test) (weeds; Table 23, 30 g of a.i./ha): 70
- Chenopodium (pre-emergence test) (weeds; Table 23, 60 g of a.i./ha): 50
- Eriochloa (pre-emergence test) (weeds; Table 23, 60 g of a.i./ha): 90
- Galium (pre-emergence test) (weeds; Table 23, 60 g of a.i./ha): 40
- Setaria (pre-emergence test) (weeds; Table 23, 60 g of a.i./ha): 90
- Chenopodium (pre-emergence test) (weeds; Table A21, 60 g of a.i./ha): 50
- Ipomoea (pre-emergence test) (weeds; Table A21, 60 g of a.i./ha): 70
- Polygonum (pre-emergence test) (weeds; Table A21, 60 g of a.i./ha): 0
- Datura (pre-emergence test) (weeds; Table A21, 125 g of a.i./ha): 50
- Ipomoea (pre-emergence test) (weeds; Table A21, 125 g of a.i./ha): 80
- Polygonum (pre-emergence test) (weeds; Table A21, 125 g of a.i./ha): 30
- Stellaria (Stellaria; 60 g of a.i./ha): 50%
- Stellaria (Stellaria; 125 g of a.i./ha): 70%

SMILES: CCc1cccc(C)c1N(C(=O)CCl)[C@@H](C)COC [metolachlor, (S)-2-chloro-N-(2-ethyl-6-methyl-phenyl)-N-(2-methoxy-1-methylethyl)-acetamide]
- pest or weed control at 125 g/ha (Abutilon [7]): 30%
- pest or weed control at 250 g/ha (Abutilon [7]; 250 g of a.i./ha): 30%
- Ipomoea (Ipomoea; 250 g of a.i./ha): 30%
- Digitaria (Digitaria; 250 g of a.i./ha): 90%
- Viola (Viola): 50%
- Stellaria (Stellaria; 125 g of a.i./ha): 30%
- Stellaria (Stellaria; 250 g of a.i./ha): 80%

SMILES: CC(C)c1nn(C(=O)NC(C)(C)C)c(=O)n1N [amicarbazone, 4-amino-N-(1,1-dimethyl-ethyl)-4,5-dihydro-3-(1-methyl-ethyl)-5-oxo-1H-1,2,4-triazole-1-carboxamide]
- pest or weed control at 30 g/ha (Abutilon [7]): 20%
- pest or weed control at 60 g/ha (Abutilon [7]): 99%
- Echinochloa (Echinochloa; 60 g of a.i./ha): 0%
- Eriochloa (Eriochloa; 30 g of a.i./ha): 30%
- Eriochloa (Eriochloa; 60 g of a.i./ha): 70%
- Chenopodium (Chenopodium [9]; 30 g of a.i./ha): 50%
- Lolium (Lolium; 30 g of a.i./ha): 0%
- Datura (Datura [10]; 30 g of a.i./ha): 0%
- Datura (Datura [10]; 60 g of a.i./ha): 20%
- Ipomoea (Ipomoea; 30 g of a.i./ha): 50%
- Setaria (Setaria; 30 g of a.i./ha): 20%
- Setaria (Setaria; 60 g of a.i./ha): 20% and 30%
- Digitaria (Digitaria; 30 g of a.i./ha): 20%
- Digitaria (Digitaria; 60 g of a.i./ha): 60%
- Polygonum (Polygonum [11]; 60 g of a.i./ha): 80%
- Cassia (Cassia; 30 g of a.i./ha): 70%
- Alopecurus (Alopecurus; 60 g of a.i./ha): 20%
- Cassia (pre-emergence test) (weeds; Table A22, 60 g of a.i./ha): 80
- Datura (pre-emergence test) (weeds; Table A22, 125 g of a.i./ha): 50
- Polygonum (pre-emergence test) (weeds; Table A22, 125 g of a.i./ha): 90

SMILES: O=C(O)COc1ccc(Cl)cc1Cl [2,4-D, 2,4-dichloro-phenoxyacetic acid]
- Galium (Galium [1]; 86 g of a.i./ha): 0%
- Amaranthus (Amaranthus; 86 g of a.i./ha): 30%

SMILES: CSc1nnc(C(C)(C)C)c(=O)n1N [metribuzin, 4-amino-6-tert-butyl-3-methylthio-1,2,4-triazin-5(4H)-one]
- pest or weed control at 30 g/ha (Abutilon [7]): 80%
- pest or weed control at 60 g/ha (Abutilon [7]): 90%
- Galium (Galium [8]; 60 g of a.i./ha): 0%
- Bromus (Bromus; 30 g of a.i./ha): 0%
- Echinochloa (Echinochloa; 60 g of a.i./ha): 0%
- Echinochloa (Echinochloa; 125 g of a.i./ha): 80%
- Chenopodium (Chenopodium [9]; 60 g of a.i./ha): 50%
- Datura (Datura [10]; 30 g of a.i./ha): 20%
- Datura (Datura [10]; 60 g of a.i./ha): 30%
- Ipomoea (Ipomoea; 30 g of a.i./ha): 0%
- Digitaria (Digitaria; 30 g of a.i./ha): 30%
- Digitaria (Digitaria; 60 g of a.i./ha): 80%
- Polygonum (Polygonum [11]; 60 g of a.i./ha): 40%
- Alopecurus (Alopecurus; 30 g of a.i./ha): 0%
- Chenopodium (pre-emergence test) (weeds; Table 23, 30 g of a.i./ha): 30
- Lolium (pre-emergence test) (weeds; Table 23, 30 g of a.i./ha): 0
- Setaria (pre-emergence test) (weeds; Table 23, 30 g of a.i./ha): 20
- Eriochloa (pre-emergence test) (weeds; Table 23, 60 g of a.i./ha): 0
- Galium (pre-emergence test) (weeds; Table 23, 60 g of a.i./ha): 20
- Ipomoea (pre-emergence test) (weeds; Table 23, 60 g of a.i./ha): 0
- Setaria (pre-emergence test) (weeds; Table 23, 60 g of a.i./ha): 80
- Cassia (pre-emergence test) (weeds; Table A26, 60 g of a.i./ha): 80
- Echinochloa (pre-emergence test) (weeds; Table A26, 60 g of a.i./ha): 30
- Matricaria (pre-emergence test) (weeds; Table A26, 60 g of a.i./ha): 60
- Avena (pre-emergence test) (weeds; Table A26, 125 g of a.i./ha): 40
- Digitaria (pre-emergence test) (weeds; Table A26, 125 g of a.i./ha): 90
- Echinochloa (pre-emergence test) (weeds; Table A26, 125 g of a.i./ha): 80
- Lolium (pre-emergence test) (weeds; Table A26, 125 g of a.i./ha): 70
- Matricaria (pre-emergence test) (weeds; Table A26, 125 g of a.i./ha): 70
- Setaria (pre-emergence test) (weeds; Table A26, 125 g of a.i./ha): 80
